Test results from patent US9688712B2, “Manufacturing method for polyphenol composition” (KAO CORPORATION, priority 2010, dated 2017).
Read-outs that look alike come from different tables or passages of the source.

How the values were obtained:
[1] = Measurement of log P value of the hardly water-soluble polyphenols (flask shaking method, JIS Z7260-107)
Description: The log P value is a common logarithm of the partition coefficient between 1-octanol, and water and an index indicative of a hydrophobicity of an organic compound. Larger positive log P value indicates larger hydrophobicity. […] The details are described in Examples.
[Measurement of Log P Value of the Hardly Water-Soluble Polyphenols]
First, 1-octanol and distilled water were shaken for 24 hours at 25° C. to equilibrate them. Then, 10 mg of polyphenol was weighed into a glass vial with a cap, into which each of 4 mL of the equilibrated 1-octanol and water was added. The vial was shaken for 4 days at 25° C. […] Log P value is a common logarithm of the partition coefficient between the two phases.

[2] = cited from earlier work

Q: For Oc1ccc(C=Cc2cc(O)cc(O)c2)cc1 [resveratrol], which logP at 4 days ([1]; 1-octanol/water) is on record?
A: Its logP at 4 days is 3.08.

Q: With COc1ccc([C@@H]2CC(=O)c3c(O)cc(O[C@@H]4O[C@H](CO[C@@H]5O[C@@H](C)[C@H](O)[C@@H](O)[C@H]5O)[C@@H](O)[C@H](O)[C@H]4O)cc3O2)cc1O [Hesperidin, hesperidin] as the molecule, how does the “solubility in water at 25° C.” value [2] read?
A: Its value is 0.02 mg/g.

Q: For COc1cc(/C=C/C(=O)CC(=O)/C=C/c2ccc(O)c(OC)c2)ccc1O [curcumin], which logP at 4 days [1] is on record?
A: The logP at 4 days was 3.29.
